According to PubChem BioAssay AID328 (DTP/NCI, 2004):
Values joined by “and” are separate entries in the source; they are usually repeats but may differ in a detail not shown here. Equal entries are not always repeated. Inconclusive results and toxic doses are left out.

System: BDF1 mice, P388 leukemia ip, median survival T/C
Assay: NCI In Vivo Anticancer Drug Screen. Data for tumor model P388 Leukemia (intraperitoneal) in B6D2F1 (BDF1) mice
Settings: endpoint: median survival time, higher = longer survival
Procedure, shortened: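 Survival ratio, drug arm over vehicle arm, in mice with a transplanted tumour.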

[1] = dose: 50.0 mg/kg/injection, schedule: Q01DX009 (ip), vehicle: saline with Tween-80
[2] = dose: 100.0 mg/kg/injection, schedule: Q01DX009 (ip), vehicle: saline with Tween-80
[3] = dose: 200.0 mg/kg/injection, schedule: Q01DX009 (ip), vehicle: saline with Tween-80
[4] = dose: 200.0 mg/kg/injection, schedule: Q04DX003 (ip), vehicle: water
[5] = dose: 400.0 mg/kg/injection, schedule: Q04DX003 (ip), vehicle: water
[6] = dose: 25.0 mg/kg/injection, schedule: Q01DX009 (ip), vehicle: saline with Tween-80
[7] = dose: 25.0 mg/kg/injection, schedule: Q01DX009 (ip), vehicle: saline
[8] = dose: 50.0 mg/kg/injection, schedule: Q01DX009 (ip), vehicle: saline
[9] = dose: 100.0 mg/kg/injection, schedule: Q01DX009 (ip), vehicle: saline
[10] = dose: 100.0 mg/kg/injection, schedule: Q04DX003 (ip), vehicle: saline with Tween-80
[11] = dose: 50.0 mg/kg/injection, schedule: Q01DX009 (ip), vehicle: Klucel (hydroxypropylcellulose) (HPC)
[12] = dose: 200.0 mg/kg/injection, schedule: Q04DX003 (ip), vehicle: saline with Tween-80

In the case of `CC(C)(O)c1cccc(C(=O)O)c1Sc1ccccc1`, the T/C (dose: 100.0 mg/kg/injection, schedule: Q01DX001 (ip), vehicle: saline with Tween-80) is reported as 100 % of control, the T/C (dose: 200.0 mg/kg/injection, schedule: Q01DX001 (ip), vehicle: saline with Tween-80) is reported as 95 % of control and the T/C (dose: 400.0 mg/kg/injection, schedule: Q01DX001 (ip), vehicle: saline with Tween-80) is reported as 101 % of control.
In the case of `CCOC1(OCC)OC(c2ccccc2)=C(C#N)C(/C=C\c2ccccc2)C1(OCC)OCC` (centres undefined), the T/C [1] is reported as 92 % of control, the T/C [2] is reported as 92 % of control and the T/C [3] is reported as 90 % of control.
`CC(=O)N1CCn2nccc21` was tested, and the T/C (dose: 100.0 mg/kg/injection, schedule: Q04DX003 (ip), vehicle: water) was 104 % of control, the T/C [4] was 90 % of control and the T/C [5] was 112 % of control.
For `COc1ccc(OC)c(NC=O)c1`, the T/C [6] was 97 % of control and the T/C [2] was 97 % of control.
In the case of `N=C(N)N.O=S(=O)(O)[O][Al]1[O]S(=O)(=O)[O]1`, the T/C [7] is reported as 87 % of control, the T/C [8] is reported as 100 % of control and the T/C [9] is reported as 95 % of control.
In the case of `CC(=O)C(C)(c1ccccc1)N(Cc1ccccc1)C(=O)c1ccccc1` (centres undefined), the T/C (dose: 100.0 mg/kg/injection, schedule: Q01DX001 (ip), vehicle: saline) is reported as 109 % of control, the T/C (dose: 200.0 mg/kg/injection, schedule: Q01DX001 (ip), vehicle: saline) is reported as 109 % of control and the T/C (dose: 400.0 mg/kg/injection, schedule: Q01DX001 (ip), vehicle: saline) is reported as 104 % of control.
`Clc1ncnc2nc[nH]c12` was tested, and the T/C (dose: 7.5 mg/kg/injection, schedule: Q01DX010 (ip), vehicle: saline) was 92 % of control and 118 % of control, the T/C (dose: 15.0 mg/kg/injection, schedule: Q01DX010 (ip), vehicle: saline) was 92 % of control and 122 % of control and the T/C (dose: 30.0 mg/kg/injection, schedule: Q01DX010 (ip), vehicle: saline) was 100 % of control. For the same compound, the T/C (dose: 60.0 mg/kg/injection, schedule: Q01DX010 (ip), vehicle: saline) was 100 % of control.
With `O=C(NC(=O)c1c(F)cccc1F)Nc1nc(-c2ccccc2)cs1` the T/C [6] was 93 % of control, the T/C [1] was 100 % of control and the T/C [2] was 90 % of control.
In the case of `CCOC(=O)Cc1csc(NNC(=O)c2ccccc2)n1`, the T/C [1] is reported as 108 % of control, the T/C [2] is reported as 99 % of control and the T/C [3] is reported as 101 % of control.
With `CC(C)CN(CC(C)C)C(=O)c1ccc(Cl)c(Cl)c1` the T/C [6] was 91 % of control, the T/C [1] was 103 % of control and the T/C [2] was 107 % of control. For the same compound, the T/C [3] was 94 % of control.
`C(CC1CO1)CC1OC1CC1CO1` (centres undefined) was tested, and the T/C (dose: 65.0 mg/kg/injection, schedule: Q04DX003 (ip), vehicle: saline) was 113 % of control, the T/C (dose: 67.0 mg/kg/injection, schedule: Q04DX003 (ip), vehicle: saline with Tween-80) was 113 % of control and the T/C [10] was 122 % of control. For the same compound, the T/C (dose: 100.0 mg/kg/injection, schedule: Q04DX003 (ip), vehicle: saline) was 109 % of control, the T/C (dose: 150.0 mg/kg/injection, schedule: Q04DX003 (ip), vehicle: saline with Tween-80) was 181 % of control and the T/C (dose: 150.0 mg/kg/injection, schedule: Q04DX003 (ip), vehicle: saline) was 154 % of control. For the same compound, the T/C (dose: 225.0 mg/kg/injection, schedule: Q04DX003 (ip), vehicle: saline with Tween-80) was 181 % of control.
In the case of `CC(=O)c1cc(C)[nH]c1C`, the T/C (dose: 200.0 mg/kg/injection, schedule: Q04DX003 (ip), vehicle: saline sonified) is reported as 115 % of control and the T/C (dose: 400.0 mg/kg/injection, schedule: Q04DX003 (ip), vehicle: saline sonified) is reported as 100 % of control.
For `O=C1c2ccccc2S(=O)(=O)N1CCCBr`, the T/C (dose: 12.5 mg/kg/injection, schedule: Q01DX009 (ip), vehicle: Klucel (hydroxypropylcellulose) (HPC)) was 95 % of control, the T/C (dose: 25.0 mg/kg/injection, schedule: Q01DX009 (ip), vehicle: Klucel (hydroxypropylcellulose) (HPC)) was 110 % of control and the T/C [11] was 105 % of control. For the same compound, the T/C (dose: 100.0 mg/kg/injection, schedule: Q04DX003 (ip), vehicle: Klucel (hydroxypropylcellulose) (HPC)) was 95 % of control, the T/C (dose: 200.0 mg/kg/injection, schedule: Q04DX003 (ip), vehicle: Klucel (hydroxypropylcellulose) (HPC)) was 95 % of control and the T/C (dose: 400.0 mg/kg/injection, schedule: Q04DX003 (ip), vehicle: Klucel (hydroxypropylcellulose) (HPC)) was 95 % of control.
With `OCC(O)C1CCCCN1` (centres undefined) the T/C [8] was 104 % of control, the T/C [9] was 106 % of control and the T/C (dose: 200.0 mg/kg/injection, schedule: Q01DX009 (ip), vehicle: saline) was 104 % of control.
In the case of `C/C=C(\C)C(=O)OC1C(C)C2(O)C(C=C(CO)CC3(O)C(=O)C(C)=CC32)C2C(C)(C)C12OC(=O)CCCCCCCCC` (centres undefined), the T/C (dose: 0.01 mg/kg/injection, schedule: Q01DX009 (ip), vehicle: gum acacia) is reported as 98 % of control, the T/C (dose: 0.01 mg/kg/injection, schedule: Q01DX009 (ip), vehicle: saline + alcohol) is reported as 90 % of control and the T/C (dose: 0.01 mg/kg/injection, schedule: Q01DX009 (ip), vehicle: saline with Tween-80) is reported as 118 % of control. For the same compound, the T/C (dose: 0.02 mg/kg/injection, schedule: Q01DX009 (ip), vehicle: gum acacia) was 93 % of control, the T/C (dose: 0.03 mg/kg/injection, schedule: Q01DX009 (ip), vehicle: Klucel (hydroxypropylcellulose) (HPC)) was 110 % of control and the T/C (dose: 0.03 mg/kg/injection, schedule: Q01DX009 (ip), vehicle: gum acacia) was 111 % of control. For the same compound, the T/C (dose: 0.03 mg/kg/injection, schedule: Q01DX009 (ip), vehicle: saline + alcohol) was 93 % of control and 108 % of control, the T/C (dose: 0.06 mg/kg/injection, schedule: Q01DX009 (ip), vehicle: Klucel (hydroxypropylcellulose) (HPC)) was 112 % of control and the T/C (dose: 0.06 mg/kg/injection, schedule: Q01DX009 (ip), vehicle: saline + alcohol) was 90 % of control and 108 % of control. For the same compound, the T/C (dose: 0.12 mg/kg/injection, schedule: Q01DX009 (ip), vehicle: Klucel (hydroxypropylcellulose) (HPC)) was 112 % of control, the T/C (dose: 0.25 mg/kg/injection, schedule: Q01DX009 (ip), vehicle: Klucel (hydroxypropylcellulose) (HPC)) was 112 % of control and the T/C (dose: 0.25 mg/kg/injection, schedule: Q01DX009 (ip), vehicle: saline + alcohol) was 163 % of control. The T/C (dose: 0.5 mg/kg/injection, schedule: Q01DX009 (ip), vehicle: Klucel (hydroxypropylcellulose) (HPC)) was 119 % of control and the T/C (dose: 1.0 mg/kg/injection, schedule: Q01DX009 (ip), vehicle: Klucel (hydroxypropylcellulose) (HPC)) was 91 % of control.
With `COc1ccc(/C=C/c2ccc3ccccc3n2)c(OC)c1` the T/C [10] was 88 % of control and the T/C [12] was 100 % of control.
In the case of `COC(=O)c1cccn1C(=O)c1c2nc3c(C(=O)n4cccc4C(=O)OC)ccc(C)c3oc-2c(C)c(=O)c1N`, the T/C [10] is reported as 101 % of control, the T/C [12] is reported as 102 % of control and the T/C (dose: 400.0 mg/kg/injection, schedule: Q04DX003 (ip), vehicle: saline with Tween-80) is reported as 103 % of control.
In the case of `Nc1nccnc1C(=O)O`, the T/C (dose: 12.5 mg/kg/injection, schedule: Q01DX009 (ip), vehicle: water) is reported as 102 % of control, the T/C (dose: 25.0 mg/kg/injection, schedule: Q01DX009 (ip), vehicle: water) is reported as 109 % of control and the T/C (dose: 50.0 mg/kg/injection, schedule: Q01DX009 (ip), vehicle: water) is reported as 117 % of control. The T/C (dose: 100.0 mg/kg/injection, schedule: Q01DX009 (ip), vehicle: water) was 105 % of control, the T/C [4] was 101 % of control and the T/C (dose: 300.0 mg/kg/injection, schedule: Q04DX003 (ip), vehicle: water) was 110 % of control. For the same compound, the T/C (dose: 400.0 mg/kg/injection, schedule: Q01DX009 (ip), vehicle: water) was 109 % of control, the T/C [5] was 105 % of control and the T/C (dose: 600.0 mg/kg/injection, schedule: Q04DX003 (ip), vehicle: water) was 100 % of control.
`COc1ccccc1C(=O)NS(=O)(=O)c1ccc(Cl)cc1` was tested, and the T/C [11] was 105 % of control, the T/C (dose: 100.0 mg/kg/injection, schedule: Q01DX009 (ip), vehicle: Klucel (hydroxypropylcellulose) (HPC)) was 110 % of control and the T/C (dose: 200.0 mg/kg/injection, schedule: Q01DX009 (ip), vehicle: Klucel (hydroxypropylcellulose) (HPC)) was 120 % of control.
`[Cl][Ni+2][Cl].[NH-]CCN1CC1` was tested, and the T/C (dose: 6.25 mg/kg/injection, schedule: Q01DX001 (ip), vehicle: saline) was 90 % of control, the T/C (dose: 12.5 mg/kg/injection, schedule: Q01DX001 (ip), vehicle: saline) was 100 % of control and the T/C (dose: 25.0 mg/kg/injection, schedule: Q01DX001 (ip), vehicle: saline) was 100 % of control.
`CN(C)CCCN=C1Nc2ccccc2C(=NCCCN(C)C)Nc2ccccc21` was tested, and the T/C (dose: 12.5 mg/kg/injection, schedule: Q01DX009 (ip), vehicle: saline) was 104 % of control, the T/C (dose: 12.5 mg/kg/injection, schedule: Q04DX003 (ip), vehicle: saline) was 100 % of control and the T/C [7] was 95 % of control. The T/C (dose: 25.0 mg/kg/injection, schedule: Q04DX003 (ip), vehicle: saline) was 88 % of control, the T/C [8] was 100 % of control and the T/C (dose: 50.0 mg/kg/injection, schedule: Q04DX003 (ip), vehicle: saline) was 111 % of control.
